Residues, ends and D or L forms follow the SMILES beside them.

For one assay, the target named is Sushi domains (SD1/2) protein. In words: Fluorescence polarization (FP) competition assay with AJAP-1probe, calculated Ki. The format is binding. Particulars: Table 4, truncation and elongation scans of APP epitope; read-out: Ki (nM) mean ± SEM. Put shortly: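 Competition against 25 nM TAMRA-labelled peptide probe binding SD1/2, in PBS pH 7.4 with 1% BSA at rt, read at 530/580 nm. IC50 from sigmoidal dose-response fits, at least triplicate; Ki calculated from IC50 using probe Kd from saturation binding.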
In the case of `CC(=O)N[C@@H](CCC(=O)O)C(=O)N[C@@H](CCC(=O)O)C(=O)N[C@@H](CC(=O)O)C(=O)N[C@@H](CC(=O)O)C(=O)N[C@@H](CO)C(=O)N[C@@H](CC(=O)O)C(=O)N[C@H](C(=O)N[C@@H](Cc1c[nH]c2ccccc12)C(=O)N[C@@H](Cc1c[nH]c2ccccc12)C(=O)NCC(=O)NCC(=O)N[C@@H](C)C(=O)N[C@@H](CC(=O)O)C(N)=O)C(C)C` (Ac-EEDDSDVWWGGAD-NH2), the Ki is 534 ± 13 nM. Still for that read-out and setting: in the case of `CC(=O)N[C@@H](CCC(=O)O)C(=O)N[C@@H](CCC(=O)O)C(=O)N[C@@H](CC(=O)O)C(=O)N[C@@H](CC(=O)O)C(=O)N[C@@H](CO)C(=O)N[C@@H](CC(=O)O)C(=O)N[C@H](C(=O)N[C@@H](Cc1c[nH]c2ccccc12)C(=O)N[C@@H](Cc1c[nH]c2ccccc12)C(=O)NCC(=O)NCC(=O)N[C@@H](C)C(=O)N[C@@H](CC(=O)O)C(=O)N[C@H](C(N)=O)[C@@H](C)O)C(C)C` (Ac-EEDDSDVWWGGADT-NH2) it was 585 ± 10 nM; in that of `CC(=O)N[C@@H](CCC(=O)O)C(=O)N[C@@H](CCC(=O)O)C(=O)N[C@@H](CC(=O)O)C(=O)N[C@@H](CC(=O)O)C(=O)N[C@@H](CO)C(=O)N[C@@H](CC(=O)O)C(=O)N[C@H](C(=O)N[C@@H](Cc1c[nH]c2ccccc12)C(=O)N[C@@H](Cc1c[nH]c2ccccc12)C(=O)NCC(=O)NCC(=O)N[C@@H](C)C(=O)N[C@@H](CC(=O)O)C(=O)N[C@H](C(=O)N[C@@H](CC(=O)O)C(N)=O)[C@@H](C)O)C(C)C` (Ac-EEDDSDVWWGGADTD-NH2), 341 ± 10 nM; in that of `CC(=O)N[C@@H](CCC(=O)O)C(=O)N[C@@H](CCC(=O)O)C(=O)N[C@@H](CC(=O)O)C(=O)N[C@@H](CC(=O)O)C(=O)N[C@@H](CO)C(=O)N[C@@H](CC(=O)O)C(=O)N[C@H](C(=O)N[C@@H](Cc1c[nH]c2ccccc12)C(=O)N[C@@H](Cc1c[nH]c2ccccc12)C(=O)NCC(=O)NCC(=O)N[C@@H](C)C(=O)N[C@@H](CC(=O)O)C(=O)N[C@H](C(=O)N[C@@H](CC(=O)O)C(=O)N[C@@H](Cc1ccc(O)cc1)C(N)=O)[C@@H](C)O)C(C)C` (Ac-EEDDSDVWWGGADTDY-NH2), 301 ± 7 nM. Regarding `CC(=O)N[C@@H](CCC(=O)O)C(=O)N[C@@H](CCC(=O)O)C(=O)N[C@@H](CC(=O)O)C(=O)N[C@@H](CC(=O)O)C(=O)N[C@@H](CO)C(=O)N[C@@H](CC(=O)O)C(=O)N[C@H](C(=O)N[C@@H](Cc1c[nH]c2ccccc12)C(=O)N[C@@H](Cc1c[nH]c2ccccc12)C(=O)NCC(=O)NCC(=O)N[C@@H](C)C(=O)N[C@@H](CC(=O)O)C(=O)N[C@H](C(=O)N[C@@H](CC(=O)O)C(=O)N[C@@H](Cc1ccc(O)cc1)C(=O)N[C@@H](C)C(N)=O)[C@@H](C)O)C(C)C` (Ac-EEDDSDVWWGGADTDYA-NH2), the Ki is 299 ± 8 nM. Still for that read-out and setting: the figure for `CC(=O)N[C@@H](CCC(=O)O)C(=O)N[C@@H](CCC(=O)O)C(=O)N[C@@H](CC(=O)O)C(=O)N[C@@H](CC(=O)O)C(=O)N[C@@H](CO)C(=O)N[C@@H](CC(=O)O)C(=O)N[C@H](C(=O)N[C@@H](Cc1c[nH]c2ccccc12)C(=O)N[C@@H](Cc1c[nH]c2ccccc12)C(=O)NCC(=O)NCC(=O)N[C@@H](C)C(=O)N[C@@H](CC(=O)O)C(=O)N[C@H](C(=O)N[C@@H](CC(=O)O)C(=O)N[C@@H](Cc1ccc(O)cc1)C(=O)N[C@@H](C)C(=O)N[C@@H](CC(=O)O)C(=O)NCC(N)=O)[C@@H](C)O)C(C)C` (Ac-EEDDSDVWWGGADTDYADG-NH2) is 343 ± 17 nM.

In the case of `CC(=O)N[C@@H](CCC(=O)O)C(=O)N[C@@H](CCC(=O)O)C(=O)N[C@@H](CC(=O)O)C(=O)N[C@@H](CC(=O)O)C(=O)N[C@@H](CO)C(=O)N[C@@H](CC(=O)O)C(=O)N[C@H](C(=O)N[C@@H](Cc1c[nH]c2ccccc12)C(=O)N[C@@H](Cc1c[nH]c2ccccc12)C(=O)NCC(=O)NCC(=O)N[C@@H](C)C(=O)N[C@@H](CC(=O)O)C(=O)N[C@H](C(=O)N[C@@H](CC(=O)O)C(=O)N[C@@H](Cc1ccc(O)cc1)C(=O)N[C@@H](C)C(=O)N[C@@H](CC(=O)O)C(=O)NCC(=O)NCC(N)=O)[C@@H](C)O)C(C)C` (Ac-EEDDSDVWWGGADTDYADGG-NH2), the Ki was 341 ± 6 nM. On the same count and under the same terms, the figure for `CC(=O)N[C@@H](CCC(=O)O)C(=O)N[C@@H](CCC(=O)O)C(=O)N[C@@H](CC(=O)O)C(=O)N[C@@H](CC(=O)O)C(=O)N[C@@H](CO)C(=O)N[C@@H](CC(=O)O)C(=O)N[C@H](C(=O)N[C@@H](Cc1c[nH]c2ccccc12)C(=O)N[C@@H](Cc1c[nH]c2ccccc12)C(=O)NCC(=O)NCC(=O)N[C@@H](C)C(=O)N[C@@H](CC(=O)O)C(=O)N[C@H](C(=O)N[C@@H](CC(=O)O)C(=O)N[C@@H](Cc1ccc(O)cc1)C(=O)N[C@@H](C)C(=O)N[C@@H](CC(=O)O)C(=O)NCC(=O)NCC(=O)N[C@@H](CCC(=O)O)C(N)=O)[C@@H](C)O)C(C)C` (Ac-EEDDSDVWWGGADTDYADGGE-NH2) is 351 ± 26 nM. Still for that read-out and setting: in the case of `CC(=O)N[C@@H](CCC(=O)O)C(=O)N[C@@H](CCC(=O)O)C(=O)N[C@@H](CC(=O)O)C(=O)N[C@@H](CC(=O)O)C(=O)N[C@@H](CO)C(=O)N[C@@H](CC(=O)O)C(=O)N[C@H](C(=O)N[C@@H](Cc1c[nH]c2ccccc12)C(=O)N[C@@H](Cc1c[nH]c2ccccc12)C(=O)NCC(=O)NCC(=O)N[C@@H](C)C(=O)N[C@@H](CC(=O)O)C(=O)N[C@H](C(=O)N[C@@H](CC(=O)O)C(=O)N[C@@H](Cc1ccc(O)cc1)C(=O)N[C@@H](C)C(=O)N[C@@H](CC(=O)O)C(=O)NCC(=O)NCC(=O)N[C@@H](CCC(=O)O)C(=O)N[C@@H](CC(=O)O)C(N)=O)[C@@H](C)O)C(C)C` (Ac-EEDDSDVWWGGADTDYADGGED-NH2) it was 356 ± 11 nM; in that of `CC(=O)N[C@@H](CCC(=O)O)C(=O)N[C@@H](CCC(=O)O)C(=O)N[C@@H](CC(=O)O)C(=O)N[C@@H](CC(=O)O)C(=O)N[C@@H](CO)C(=O)N[C@@H](CC(=O)O)C(=O)N[C@H](C(=O)N[C@@H](Cc1c[nH]c2ccccc12)C(=O)N[C@@H](Cc1c[nH]c2ccccc12)C(=O)NCC(=O)NCC(=O)N[C@@H](C)C(=O)N[C@@H](CC(=O)O)C(=O)N[C@H](C(=O)N[C@@H](CC(=O)O)C(=O)N[C@@H](Cc1ccc(O)cc1)C(=O)N[C@@H](C)C(=O)N[C@@H](CC(=O)O)C(=O)NCC(=O)NCC(=O)N[C@@H](CCC(=O)O)C(=O)N[C@@H](CC(=O)O)C(=O)N[C@@H](CCCCN)C(N)=O)[C@@H](C)O)C(C)C` (Ac-EEDDSDVWWGGADTDYADGGEDK-NH2), 392 ± 14 nM.

Still in this assay, the particulars now being: Table 8, Ala-, D-amino acids and N-methylation scans of AJAP-1WT; read-out: Ki (nM) mean ± SEM.
As for `CC[C@H](C)[C@H](NC(=O)[C@H](Cc1ccccc1)NC(=O)[C@H](CCC(=O)O)NC(=O)[C@@H](NC(=O)[C@H](CCC(=O)O)NC(C)=O)[C@@H](C)O)C(=O)N[C@@H](C)C(=O)N[C@@H](Cc1c[nH]c2ccccc12)C(=O)NCC(=O)N1CCC[C@H]1C(=O)N[C@H](C(=O)NCC(=O)N[C@@H](CC(=O)O)C(=O)N[C@@H](C)C(=O)N[C@@H](CC(=O)O)C(N)=O)[C@@H](C)O` (Ac-ETEFIAWGPTGDAD-NH2), the Ki was 38 ± 1 nM.

Turning to `CC[C@H](C)[C@H](NC(=O)[C@H](Cc1ccccc1)NC(=O)[C@H](CCC(=O)O)NC(=O)[C@@H](NC(=O)[C@H](CCC(=O)O)NC(C)=O)[C@@H](C)O)C(=O)N[C@@H](C)C(=O)N[C@@H](Cc1c[nH]c2ccccc12)C(=O)NCC(=O)N1CCC[C@H]1C(=O)N[C@H](C(=O)NCC(=O)N[C@@H](CC(=O)O)C(=O)N[C@@H](CCC(=O)O)C(=O)N[C@@H](C)C(N)=O)[C@@H](C)O` (Ac-ETEFIAWGPTGDEA-NH2), the Ki was 44 ± 1 nM.

The assay is the same for the next values; noted with them: Table 11, deep mutational scanning validation variants of AJAP-1WT; read-out: Ki (nM) mean ± SEM.
`CC[C@H](C)[C@H](NC(=O)[C@H](Cc1ccccc1)NC(=O)[C@H](CCC(=O)O)NC(=O)[C@@H](NC(=O)[C@H](CCC(=O)O)NC(C)=O)[C@@H](C)O)C(=O)N[C@@H](C)C(=O)N[C@@H](Cc1c[nH]c2ccccc12)C(=O)NCC(=O)N1CCC[C@H]1C(=O)N[C@H](C(=O)NCC(=O)N[C@@H](CC(=O)O)C(=O)N[C@@H](CC(=O)O)C(=O)N[C@@H](CC(=O)O)C(N)=O)[C@@H](C)O` (Ac-ETEFIAWGPTGDDD-NH2): the Ki was 27 ± 2 nM.

Take `CC[C@H](C)[C@H](NC(=O)[C@H](Cc1ccccc1)NC(=O)[C@H](CCC(=O)O)NC(=O)[C@@H](NC(=O)[C@H](CCC(=O)O)NC(C)=O)[C@@H](C)O)C(=O)N[C@@H](C)C(=O)N[C@@H](Cc1c[nH]c2ccccc12)C(=O)NCC(=O)N1CCC[C@H]1C(=O)N[C@H](C(=O)NCC(=O)N[C@@H](CC(=O)O)C(=O)N[C@@H](CCC(=O)O)C(=O)N[C@@H](Cc1ccccc1)C(N)=O)[C@@H](C)O` (Ac-ETEFIAWGPTGDEF-NH2): the Ki is 48 ± 1 nM. The same measure, in the same setting: in the case of `CC[C@H](C)[C@H](NC(=O)[C@H](Cc1ccccc1)NC(=O)[C@H](CCC(=O)O)NC(=O)[C@@H](NC(=O)[C@H](CCC(=O)O)NC(C)=O)[C@@H](C)O)C(=O)N[C@@H](C)C(=O)N[C@@H](Cc1c[nH]c2ccccc12)C(=O)NCC(=O)N1CCC[C@H]1C(=O)N[C@H](C(=O)NCC(=O)N[C@@H](CC(=O)O)C(=O)N[C@@H](CCC(=O)O)C(=O)N[C@@H](CC(N)=O)C(N)=O)[C@@H](C)O` (Ac-ETEFIAWGPTGDEN-NH2) it was 43 ± 2 nM.

As to `CC[C@H](C)[C@H](NC(=O)[C@H](Cc1ccccc1)NC(=O)[C@H](CCC(=O)O)NC(=O)[C@@H](NC(=O)[C@H](CCC(=O)O)NC(C)=O)[C@@H](C)O)C(=O)N[C@@H](C)C(=O)N[C@@H](Cc1c[nH]c2ccccc12)C(=O)NCC(=O)N1CCC[C@H]1C(=O)N[C@H](C(=O)NCC(=O)N[C@@H](CC(=O)O)C(=O)N[C@@H](CCC(=O)O)C(=O)N1CCC[C@H]1C(N)=O)[C@@H](C)O` (Ac-ETEFIAWGPTGDEP-NH2), the Ki was 41 ± 2 nM. Still for that read-out and setting: in the case of `CC[C@H](C)[C@H](NC(=O)[C@H](Cc1ccccc1)NC(=O)[C@H](CCC(=O)O)NC(=O)[C@@H](NC(=O)[C@H](CCC(=O)O)NC(C)=O)[C@@H](C)O)C(=O)N[C@@H](C)C(=O)N[C@@H](Cc1c[nH]c2ccccc12)C(=O)NCC(=O)N1CCC[C@H]1C(=O)N[C@H](C(=O)NCC(=O)N[C@@H](CC(=O)O)C(=O)N[C@@H](CCC(=O)O)C(=O)N[C@@H](CCC(N)=O)C(N)=O)[C@@H](C)O` (Ac-ETEFIAWGPTGDEQ-NH2) it was 37 ± 2 nM.
